The test system of data set [1] is HCT-116. Kind of data set: cells. The settings on record: Homo sapiens, HCT-116, 96 h.
Description: Antitumor activity against human HCT-116 cells assessed as inhibition of cell growth measured after 96 hrs by MTT assay
The target in data set [2] is T1, Peptidyl-prolyl cis-trans isomerase NIMA-interacting 1 (Homo sapiens, UniProt Q13526). The experiment in a line: Inhibition of human Pin1 extracted from Escherichia coli BL21 (DE3) cells using TAMRA labelled Bth-(D-Thr(PO3H2))-Pip-Nal-NH2 peptide probe as substrate by fluorescence polarization assay.
Data set [3] addresses T1, Peptidyl-prolyl cis-trans isomerase NIMA-interacting 1. The experiment in a line: Inhibition of human Pin1 using Suc-Ala-Glu-Pro-Phe04-nitroanilide as peptide substrate preincubated for 14 hrs followed by substrate addition and measured immediately by chymotrypsin-coupled PPIase assay.
For data set [4], the system named is MCF7. Kind of data set: cells. The note with it: Homo sapiens, MCF7, 96 h.
Description: Antitumor activity against human MCF7 cells assessed as inhibition of cell growth measured after 96 hrs by MTT assay
The nature of data set [5]: Stability in mouse liver microsomes assessed as half life. The format is ADME, Microsome. Background: Liver microsomes are a subcellular fraction often used to study metabolism.

Consider nine compounds from ChEMBL document CHEMBL6096711, “Discovery of Novel Pyrimidine Derivatives as Human Pin1 Covalent Inhibitors” (ACS Med Chem Lett, 2025).

Where a SMILES comes first, the peptide text is derived from it. [ ]: non-standard residue; d: D form. The star is where a group is joined. NMeF = CN[C@@H](Cc1ccccc1)C(=O)O; Pip = O=C(O)[C@@H]1CCCCN1; ClAc = O=C(CCl)*

For orientation: IC50 means the concentration needed to halve the response being measured. Low readings indicate greater potency in that assay, high ones weaker potency in that assay. The term half-life denotes how long it takes for the measured level to halve.

T1 sequence (Q13526 whole entry): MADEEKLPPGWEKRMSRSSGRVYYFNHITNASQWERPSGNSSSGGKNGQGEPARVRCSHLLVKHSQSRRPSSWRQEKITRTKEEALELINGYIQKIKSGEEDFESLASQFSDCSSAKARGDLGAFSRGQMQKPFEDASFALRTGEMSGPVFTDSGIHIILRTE

With `CC(C)(C)CN(C(=O)CCl)C1CCS(=O)(=O)C1` (configuration not stated), the IC50 in data set [1] was 7.54 µM; in data set [2], 0.12 µM; in data set [3], 0.12 µM; in data set [4] it was greater than 100 µM. As to `O=[N+]([O-])c1cnc(Cl)nc1N(Cc1ccc(-c2ccc3ccccc3c2)s1)C1CCS(=O)(=O)C1` (configuration not stated), the IC50 in data set [1] worked out at 3.35 µM; in data set [4], 4.95 µM. On the same counts, the results for `O=[N+]([O-])c1cnc(Cl)nc1N(Cc1cccc2ccccc12)C1CCS(=O)(=O)C1` (configuration not stated) are 5.04 µM and greater than 100 µM. As to `O=[N+]([O-])c1cnc(N(Cc2coc3ccccc23)C2CCS(=O)(=O)C2)nc1Cl` (configuration not stated), the figures for the IC50 in data set [1] and in data set [4] were greater than 100 µM and 5.26 µM, respectively. In data set [2], `O=S1(=O)CCC(Nc2nc(Cl)nc(Cl)n2)C1` (configuration not stated) had an IC50 of 144 µM. Turning to `O=[N+]([O-])c1cnc(Cl)nc1N(Cc1ccc(-c2cccc3ccoc23)s1)C1CCS(=O)(=O)C1` (configuration not stated), the IC50 in data set [1] was found to be 2.6 µM; in data set [4], 4.24 µM. On the same counts, the results for `O=[N+]([O-])c1cnc(N(Cc2ccc3ccccc3c2)C2CCS(=O)(=O)C2)nc1Cl` (configuration not stated) are greater than 100 µM and 3.94 µM. The compound `O=[N+]([O-])c1cnc(Cl)nc1N(CC1CCCCC1)C1CCS(=O)(=O)C1` (configuration not stated) had an IC50 in data set [2] of 101 µM. Regarding `CCOC(=O)[C@H](CCCNC(=N)N)NC(=O)[C@H](Cc1c[nH]c2ccccc12)NC(=O)[C@@H]1CCCCN1C(=O)[C@H](Cc1ccccc1)N(C)C(=O)CCl` (ClAc-[NMeF][Pip]WR-OEt), the half-life in data set [5] was 1.2 min.
